Data set [1] can be described thus: Intrinsic clearance (CLi), human. The class given is in vitro ADME. As to conditions: 0.5 mg/mL microsomes, 2 μM test article, 2 mM NADPH, 37° C. On the procedure:
(§1) For example, compounds of the invention preferably have a CLi of less than 100 μL/min/mg in rat and human microsomes. The CLi can be measured using known methods, such as those illustrated in the Examples.
(§2) The in-vitro intrinsic clearance of the compounds was measured in rat and human […] using the following assay.
(§3) 5 μL microsomes (20 mg/ml, Corning BV) diluted into 95 μL PBS (pH 7) containing 0.2% DMSO and 4 μM test article were incubated at 37° C. shaking at 1000 rpm prior the addition of 100 μL of pre-warmed 4 mM NADPH in PBS (final concentrations: 0.5 mg/mL microsomes, 2 μM test article, 0.1% DMSO and 2 mM NADPH). After mixing thoroughly the T=0 sample (40 μL) was immediately quenched into ice cold methanol containing 2 μM internal standard (Carbemazapine). Three further samples were quenched in the same way at 3, 9 and 30 min. Samples were incubated on ice for 30 min before centrifugation at 4000 rpm+ for […]. The supernatant was analysed via LCMS and the test article:carbemazapine peak area ratios calculated to determine the rate of substrate depletion.

Data set [2] in a line: Intrinsic clearance (CLi), rat. The class given is in vitro ADME. As to conditions: 0.5 mg/mL microsomes, 2 μM test article, 2 mM NADPH, 37° C. As for the experimental part:
as §1, §2, §3

In data set [1], `Cc1c(Cl)c(C(F)(F)F)nn1-c1ccc(CN2CCCC2=O)cc1` [Comparative Example, reference compound] returned a CLi human of 71 µL/min/mg. For the same compound, the “CLi Rat” value in data set [2] was 878 µL/min/mg.

With `Cc1c(CO)c(C(F)(F)F)nn1-c1ccc(CN2CCCC2=O)cc1` [Example 1, 1-[[4-[4-(Hydroxymethyl)-5-methyl-3-(trifluoromethyl)pyrazol-1-yl]phenyl]methyl]pyrrolidin-2-one], the CLi human in data set [1] amounted to 4.3 µL/min/mg. Besides, in data set [2], the “CLi Rat” value worked out at 8.4 µL/min/mg.

In turn, `CCc1c(CO)c(C(F)(F)F)nn1-c1ccc(CN2CCCC2=O)cc1` [Example 2, 1-[[4-[5-Ethyl-4-(hydroxymethyl)-3-(trifluoromethyl)pyrazol-1-yl]phenyl]methyl]pyrrolidin-2-one] yielded a CLi human in data set [1] of 2.6 µL/min/mg. Moreover, the “CLi Rat” value in data set [2] was determined as 3.7 µL/min/mg.

In the case of `CC(C)c1c(CO)c(C(F)(F)F)nn1-c1ccc(CN2CCCC2=O)cc1` [Example 3, 1-[[4-[4-(Hydroxymethyl)-5-isopropyl-3-(trifluoromethyl)pyrazol-1-yl]phenyl]methyl]pyrrolidin-2-one], the CLi human in data set [1] came to 7.9 µL/min/mg. Further, in data set [2], the “CLi Rat” value was determined as 2.2 µL/min/mg.

Consider `COCc1c(C)c(C(F)(F)F)nn1-c1ccc(CN2CCCC2=O)cc1` [Example 5, 1-[[4-[5-(Methoxymethyl)-4-methyl-3-(trifluoromethyl)pyrazol-1-yl]phenyl]methyl]pyrrolidin-2-one], for which, in data set [1], the CLi human came to 47.4 µL/min/mg. The “CLi Rat” value in data set [2] was determined as 87.4 µL/min/mg.

On to `Cc1c(C(F)(F)F)nn(-c2ccc(CN3CCCC3=O)cc2)c1C#N` [Example 6, 4-Methyl-2-[4-[(2-oxopyrrolidin-1-yl)methyl]phenyl]-5-(trifluoromethyl)pyrazole-3-carbonitrile], for which, in data set [1], the CLi human was 6.2 µL/min/mg. Moreover, in data set [2], the “CLi Rat” value worked out at 70.2 µL/min/mg.

`Cc1c(C(F)(F)F)nn(-c2ccc(CN3CCCC3=O)cc2)c1C(C)O` (centres unmarked) [Example 7, 1-[[4-[5-(1-Hydroxyethyl)-4-methyl-3-(trifluoromethyl)pyrazol-1-yl]phenyl]methyl]pyrrolidin-2-one]: the CLi human in data set [1] was determined as 31.1 µL/min/mg. Moreover, the “CLi Rat” value in data set [2] stood at 37.7 µL/min/mg.

Source of the values: patent US11186567B2, “AMPA receptor potentiators” (UNIVERSITY COLLEGE CARDIFF CONSULTANTS LIMITED, priority 2017, dated 2021).
